In the oligonucleotide strings, read from the 5' end, every base follows the letter of its sugar. An asterisk marks phosphorothioate; unmarked linkages are phosphodiester. Other units and linkages are bracketed, terminal groups are in braces. A string of capitals states the bases alone. e = 2'-O-(2-methoxyethyl) (MOE); [5mC] = 5-methylcytosine; d = 2'-deoxy (DNA)
Each substance was assayed on human Factor 7 mRNA (assay: Inhibition of human Factor 7 mRNA by 2-10-2 MOE shortmers in HepB3 cells, electroporation, 1,000 nM). Settings: electroporation, 1,000 nM oligonucleotide, approximately 24 hours, relative to untreated control cells.
Type: cell-based
How it was run: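 14-mer 2-10-2 2′-MOE gapmers, full phosphorothioate, 5-methylcytidines, electroporated at 1,000 nM into HepB3 cells (20,000/well). After ~24 h, mRNA quantified by real-time RT-PCR, normalized to RIBOGREEN total RNA; percent inhibition relative to untreated cells.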
“435844 (antisense eT*eG*dG*d[5mC]*d[5mC]*dA*dG*dT*dG*dG*d[5mC]*d[5mC]*eT*e[5mC]) [compound 435844]” was tested, and the “% inhibition of human Factor 7 mRNA” value was 30%.
For “435768 (antisense eG*e[5mC]*d[5mC]*dT*dG*dG*dA*dT*dG*d[5mC]*dT*dG*eG*eT) [compound 435768]”, the “% inhibition of human Factor 7 mRNA” value was 75%.
For “435715 (antisense e[5mC]*eA*dG*d[5mC]*d[5mC]*dA*d[5mC]*dT*d[5mC]*dG*dA*dT*eG*eT) [compound 435715]”, the “% inhibition of human Factor 7 mRNA” value was 35%.
In the case of “435647 (antisense eA*eG*dA*dT*dA*dT*dA*dG*dG*dA*d[5mC]*dT*eG*eG) [compound 435647]”, the “% inhibition of human Factor 7 mRNA” value is reported as 0%.
In the case of “435778 (antisense eG*e[5mC]*dT*dA*d[5mC]*dT*dG*dG*dG*d[5mC]*d[5mC]*dA*e[5mC]*eG) [compound 435778]”, the “% inhibition of human Factor 7 mRNA” value is reported as 49%.
With “435648 (antisense eG*eA*dA*dG*d[5mC]*dA*dG*dA*dT*dA*dT*dA*eG*eG) [compound 435648]” the “% inhibition of human Factor 7 mRNA” value was 0%.
In the case of “435785 (antisense eA*eG*d[5mC]*dT*dT*d[5mC]*dT*d[5mC]*dA*d[5mC]*d[5mC]*dA*e[5mC]*eG) [compound 435785]”, the “% inhibition of human Factor 7 mRNA” value is reported as 46%.
In the case of “435795 (antisense eA*e[5mC]*dA*d[5mC]*d[5mC]*d[5mC]*dG*dA*dG*dG*dT*dT*e[5mC]*eA) [compound 435795]”, the “% inhibition of human Factor 7 mRNA” value is reported as 66%.
“435718 (antisense eG*e[5mC]*dT*d[5mC]*dG*d[5mC]*dA*dG*dG*dA*dG*dG*eA*e[5mC]) [compound 435718]” was tested, and the “% inhibition of human Factor 7 mRNA” value was 26%.
In the case of “435652 (antisense e[5mC]*eT*dG*dG*dT*d[5mC]*dA*dT*d[5mC]*d[5mC]*dT*dT*eG*eT) [compound 435652]”, the “% inhibition of human Factor 7 mRNA” value is reported as 48%.
“435791 (antisense eA*eT*dG*dA*dG*dA*dA*dA*dT*dG*d[5mC]*dT*eT*eT) [compound 435791]” was tested, and the “% inhibition of human Factor 7 mRNA” value was 0%.
With “435849 (antisense eT*eG*d[5mC]*d[5mC]*dG*dT*dA*dG*dT*dG*dG*d[5mC]*e[5mC]*eG) [compound 435849]” the “% inhibition of human Factor 7 mRNA” value was 31%.
“435747 (antisense eA*eT*dA*dT*d[5mC]*dA*dT*dT*dG*dA*d[5mC]*dA*eA*eG) [compound 435747]” was tested, and the “% inhibition of human Factor 7 mRNA” value was 0%.
In the case of “435748 (antisense eT*e[5mC]*d[5mC]*d[5mC]*dA*dG*dG*dG*dT*d[5mC]*dT*d[5mC]*eT*eG) [compound 435748]”, the “% inhibition of human Factor 7 mRNA” value is reported as 18%.
“435758 (antisense e[5mC]*e[5mC]*d[5mC]*dT*dG*dA*dG*d[5mC]*dT*dG*dG*dG*e[5mC]*eA) [compound 435758]” was tested, and the “% inhibition of human Factor 7 mRNA” value was 4%.
For “435759 (antisense eG*eA*dG*d[5mC]*d[5mC]*dA*d[5mC]*dA*dG*dA*dG*d[5mC]*e[5mC]*eT) [compound 435759]”, the “% inhibition of human Factor 7 mRNA” value was 11%.
With “435752 (antisense eT*eG*d[5mC]*dA*dG*d[5mC]*dT*dT*dG*d[5mC]*d[5mC]*dA*eG*eG) [compound 435752]” the “% inhibition of human Factor 7 mRNA” value was 12%.
With “435716 (antisense eT*eT*dT*dT*dG*d[5mC]*dA*dG*d[5mC]*d[5mC]*dA*d[5mC]*eT*e[5mC]) [compound 435716]” the “% inhibition of human Factor 7 mRNA” value was 22%.
For “435663 (antisense e[5mC]*e[5mC]*dA*d[5mC]*dA*dT*dG*dG*dA*dT*dA*dT*eT*e[5mC]) [compound 435663]”, the “% inhibition of human Factor 7 mRNA” value was 50%.
With “435742 (antisense eA*eT*dG*dT*dG*dA*dG*dG*dG*dT*dT*d[5mC]*eA*eT) [compound 435742]” the “% inhibition of human Factor 7 mRNA” value was 11%.
With “435644 (antisense eT*eG*dG*dT*d[5mC]*d[5mC]*dT*dT*dG*d[5mC]*dA*dG*eG*eA) [compound 435644]” the “% inhibition of human Factor 7 mRNA” value was 30%.
“435790 (antisense eA*eT*dG*dA*d[5mC]*d[5mC]*dA*dT*d[5mC]*d[5mC]*dT*d[5mC]*eA*eA) [compound 435790]” was tested, and the “% inhibition of human Factor 7 mRNA” value was 1%.
With “435755 (antisense eG*eG*dG*dA*d[5mC]*dT*d[5mC]*dA*dG*d[5mC]*dA*dA*eG*eA) [compound 435755]” the “% inhibition of human Factor 7 mRNA” value was 0%.
In the case of “435762 (antisense e[5mC]*eA*dG*dG*dT*dG*dT*dT*dA*dA*dG*dG*eT*eG) [compound 435762]”, the “% inhibition of human Factor 7 mRNA” value is reported as 0%.
“435754 (antisense eT*e[5mC]*dA*dG*d[5mC]*dA*dA*dG*dA*dG*dT*dG*e[5mC]*eA) [compound 435754]” was tested, and the “% inhibition of human Factor 7 mRNA” value was 16%.
With “435638 (antisense eA*eG*d[5mC]*d[5mC]*d[5mC]*dT*dG*dA*dA*dG*d[5mC]*d[5mC]*e[5mC]*eA) [compound 435638]” the “% inhibition of human Factor 7 mRNA” value was 55%.
For “435500 (antisense eA*e[5mC]*dT*dG*dG*dG*dA*dG*dA*d[5mC]*d[5mC]*d[5mC]*eT*eG) [compound 435500]”, the “% inhibition of human Factor 7 mRNA” value was 49%.
In the case of “435681 (antisense eA*eT*dG*dA*d[5mC]*d[5mC]*dT*dG*d[5mC]*dG*d[5mC]*d[5mC]*eA*e[5mC]) [compound 435681]”, the “% inhibition of human Factor 7 mRNA” value is reported as 40%.
With “435836 (antisense e[5mC]*eT*dA*dG*dG*dT*d[5mC]*dT*dG*d[5mC]*dA*dG*eG*eG) [compound 435836]” the “% inhibition of human Factor 7 mRNA” value was 41%.
With “435776 (antisense eG*eG*dG*dA*d[5mC]*dA*d[5mC]*dT*d[5mC]*dA*d[5mC]*dA*e[5mC]*eT) [compound 435776]” the “% inhibition of human Factor 7 mRNA” value was 51%.
With “435654 (antisense eG*e[5mC]*d[5mC]*dG*dT*dT*d[5mC]*dT*d[5mC]*dG*dT*dT*e[5mC]*eA) [compound 435654]” the “% inhibition of human Factor 7 mRNA” value was 71%.
For “435829 (antisense eG*eG*dG*dT*dA*dG*dA*d[5mC]*d[5mC]*d[5mC]*dT*d[5mC]*eA*eG) [compound 435829]”, the “% inhibition of human Factor 7 mRNA” value was 18%.
For “435699 (antisense eG*e[5mC]*d[5mC]*d[5mC]*d[5mC]*dA*dG*d[5mC]*dT*dG*dA*d[5mC]*eG*eA) [compound 435699]”, the “% inhibition of human Factor 7 mRNA” value was 48%.
In the case of “435741 (antisense eA*eG*dG*dG*dT*dT*d[5mC]*dA*dT*dT*dT*d[5mC]*eA*eG) [compound 435741]”, the “% inhibition of human Factor 7 mRNA” value is reported as 6%.
“435485 (antisense eT*e[5mC]*d[5mC]*dT*dG*dG*dG*dT*d[5mC]*dA*dT*d[5mC]*eA*eG) [compound 435485]” was tested, and the “% inhibition of human Factor 7 mRNA” value was 34%.
In the case of “435743 (antisense eG*e[5mC]*d[5mC]*dT*d[5mC]*dA*dA*dA*d[5mC]*dA*dT*d[5mC]*eT*eA) [compound 435743]”, the “% inhibition of human Factor 7 mRNA” value is reported as 40%.
For “435832 (antisense eT*eG*d[5mC]*dT*d[5mC]*dA*dG*dA*d[5mC]*d[5mC]*dT*dG*eG*e[5mC]) [compound 435832]”, the “% inhibition of human Factor 7 mRNA” value was 70%.
With “435736 (antisense eA*eT*dG*d[5mC]*dA*dT*dG*dG*dT*dG*dA*dT*eG*e[5mC]) [compound 435736]” the “% inhibition of human Factor 7 mRNA” value was 50%.
In the case of “435835 (antisense eT*eT*dA*dT*dT*dT*dG*dG*dG*d[5mC]*dA*dT*eG*eG) [compound 435835]”, the “% inhibition of human Factor 7 mRNA” value is reported as 7%.
“435661 (antisense eG*eG*dA*d[5mC]*dA*d[5mC]*d[5mC]*d[5mC]*d[5mC]*dG*dT*d[5mC]*eT*eG) [compound 435661]” was tested, and the “% inhibition of human Factor 7 mRNA” value was 18%.
In the case of “435784 (antisense e[5mC]*e[5mC]*dT*dA*dA*dG*dT*dG*dT*dG*d[5mC]*dT*eT*eT) [compound 435784]”, the “% inhibition of human Factor 7 mRNA” value is reported as 17%.

Reference: patent US20120214862A1, “MODULATION OF FACTOR 7 EXPRESSION” (ISIS Pharmaceuticals, Inc., priority 2009, published 2012)
